Marks after values point to notes of the source that are not given here.
Key:
SD rats = assay: Four-week repeat-dose toxicity study in rats; assay type: in vivo; conditions: rat, 28 days, 2% cream 500 mg bid topical, 100 mg/kg
Procedure: Each group contained 10 animals, with an equal number of males and females.
The treatment lasted for four consecutive weeks (28 days).
• Daily clinical observation and body weight measurement; • After the last administration, rats were fasted for more than 16 h, anesthetized on the next day, and blood was collected from abdominal aorta. Tests such as hematology (EDTA-2K anticoagulation), blood biochemistry (serum), coagulation function (separated plasma with sodium citrate anticoagulation) and the like were respectively carried out; • After euthanization of the animals, the tissue organs were dissected and observed in general, and organ weights and coefficients (heart, liver, spleen, kidney, thymus) were determined; • The skin and lung tissues of the administration site were taken for HE staining to observe the changes in epidermal thickness, dermal inflammatory cells and pulmonary lesions.

[1] = tested on: imiquimod-induced mouse psoriasis-like model; assay: Imiquimod-induced mouse psoriasis-like model (PASI score); assay type: in vivo
Description: The efficacy of the compounds according to the present invention in an imiquimod-induced mouse psoriasis-like model could be assessed using the following method:
Sample preparation: with reference to the preparation of commercially available Benvitimod cream. The compound (the compound of Example 3), the oil phase (hexadecanol, vaseline, liquid paraffin, and glyceryl mono- and distearate), the aqueous phase (propylene glycol, Tween 80, and water), and the appropriate additive (ethylparaben) were mixed, and subjected to vacuum emulsification to prepare a 1% cream sample.
A test site on the back of the animal was shaved to expose an area measuring of 2×3 cm^2. Imiquimod ointment was continuously applied to the back skin of the mice for 6 days to establish a mouse psoriasis model. From day 1 to day 6, various groups of animals were administered respectively according to the experimental protocol.
At day 7, the severity of skin inflammation was assessed and scored using a 5-point scale (0-4) (PASI score):
Skin thickness: 0: the skin was smooth without wrinkles; 1: the skin at the edge of the drug application area had slight wrinkles; 2: the skin in the drug application area all had slight wrinkles; 3: the degree of wrinkles in the drug application area was further deepened; and 4: on the basis of the score of 3, the mouse had the conditions of weight loss or poor state and the like. […]

JAK1 JH2 pseudokinase = JAK1 JH2 pseudokinase (Homo sapiens, UniProt P23458); assay: JAK1 JH2 enzyme binding assay in vitro (TR-FRET); conditions: read-out: JAK 1 JH2 IC50
Procedure: Instrumentation: Envision microplate reader (PerkinElmer), Echo (LABCYTE)
Method: in this experiment, the inhibitory effects of compounds on JAK1 JH2 pseudokinase was tested using time-resolved fluorescence resonance energy transfer (TR-FRET) method.
Procedure: compounds were prepared into 10 mM stock solutions using DMSO, which were further diluted into compound dilutions with different concentration gradients in DMSO, and the compound dilutions with 200× final concentration were transferred to a 384-well assay plate using an Echo instrument. The preparation of the following 1× assay working solution: HEPES pH7.5 at a final concentration of 20 mM, MgCl2 at a final concentration of 10 mM, Brij-35 at a final concentration of 0.015%, DTT at a final concentration of 2 mM, BSA at a final concentration of 50 ug/mL. JAK1 JH2 pseudokinase with 3× final concentration, Tb antibody and Tracer were prepared using their respective 1× working solution. 5 uL of JAK1 JH2 pseudokinase was added to a 384-well assay plate, and centrifuged at 1000 rpm for 30 s. 5 uL of Tb antibody was added to the 384-well assay plate, and centrifuged at 1000 rpm for 30 s. 5 uL of Tracer was added to the 384-well assay plate, and centrifuged at 1000 rpm for 30 s. Incubation was performed at room temperature for 60 min, and then at 4° C. overnight. Finally, the 495 nm/520 nm fluorescence signal ratio was measured using the Envision microplate reader (PerkinElmer).
Data Analysis: XLfit, a software developed by IDBS and integrated into the Microsoft Excel environment, was used to process and analyze the test data. […] Thereafter, the concentration and corresponding inhibition rate data were imported into the XLfit software, and the Dose Response One Site 205 model within the software was employed to fit the inhibition rate-concentration curve by four-parameter method, and the IC50 value of the compound was calculated.

[2] = target: Ba/F3 cell line expressing TYK2 (Homo sapiens, UniProt P29597, cells depend on it, form not given); assay: In vitro cellular inhibition assay (Ba/F3 cell proliferation, CellTiter-Glo); assay type: cell-based; conditions: read-out: IC50 (the source's name)
Procedure, shortened: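 Ba/F3 cells dependent on TYK2 were exposed to serially diluted compound, then viability was read by CellTiter-Glo luminescence. Inhibition (%) was calculated from RLU relative to max and min controls, and IC50 was obtained by curve fitting.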

JAK1 JH1 kinase = JAK1 JH1 kinase (Homo sapiens, UniProt P23458); assay: JAK1 JH1 enzyme assay in vitro (TR-FRET); assay type: biochemical; conditions: read-out: JAK 1 JH1 IC50
[3] = tested on: imiquimod-induced mouse psoriasis-like model; assay: Imiquimod-induced mouse psoriasis-like model (PASI score); assay type: in vivo; conditions: oral gavage, 10 mg/kg, 25 mg/kg, 50 mg/kg, bid, compared with the model group

JAK1 JH2 pseudokinase, sequence (P23458 583-855 limits assumed): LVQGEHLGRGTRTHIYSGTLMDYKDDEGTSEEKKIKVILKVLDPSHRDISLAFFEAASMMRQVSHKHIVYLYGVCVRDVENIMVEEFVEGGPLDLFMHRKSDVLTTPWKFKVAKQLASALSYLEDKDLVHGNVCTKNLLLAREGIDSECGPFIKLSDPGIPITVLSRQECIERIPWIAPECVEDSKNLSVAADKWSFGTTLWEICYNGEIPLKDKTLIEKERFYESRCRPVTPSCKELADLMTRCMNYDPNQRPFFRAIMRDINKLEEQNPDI
JAK1 JH1 kinase, sequence (P23458 875-1153 limits assumed): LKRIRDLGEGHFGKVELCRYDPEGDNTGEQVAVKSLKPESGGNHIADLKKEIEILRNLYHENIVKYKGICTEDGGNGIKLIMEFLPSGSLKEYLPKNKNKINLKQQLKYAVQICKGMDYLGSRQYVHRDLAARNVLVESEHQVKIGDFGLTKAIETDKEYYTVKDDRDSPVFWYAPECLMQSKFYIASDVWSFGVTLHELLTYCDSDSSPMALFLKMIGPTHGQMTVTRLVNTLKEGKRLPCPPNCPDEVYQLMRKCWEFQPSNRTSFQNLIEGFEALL

In the case of `[2H]C([2H])([2H])NC(=O)c1nnc(NC(=O)C2CC2)cc1Nc1cccc(C(=O)Nc2cccc(C)c2)c1OC` [Example 3], the “Effects on general state, body weight, organ coefficient, skin and pulmonary pathology, and other hematological, coagulation and blood biochemical indicators” value (SD rats) is reported as “no significant effects”, the “Hematology Gran” value (SD rats) is reported as 1.7 ± 1.0 ×10^9/L and the “Hematology Lymph” value (SD rats) is reported as 6.4 ± 2.7 ×10^9/L. The “Hematology Mono” value (SD rats) was 0.2 ± 0.1 ×10^9/L, the “Hematology PLT” value (SD rats) was 1001.8 ± 408.1 ×10^9/L and the “Percentage reduction in PASI score %” value ([1]; day 7, 1% cream, 100 mg, topical, qd, day 1 to 6) was 40.7*** %. The “Improvement of psoriasis symptoms” value ([1]; topical cream, compared with the model group) was “effectively improved psoriasis symptoms”, the IC50 (JAK1 JH2 pseudokinase) was 9.74 nM and the GI50 [2] was 1 to 5 nM. For the same compound, the IC50 (JAK1 JH1 kinase) was > 10000 nM and the “Improvement of psoriasis symptoms by oral administration” value [3] was “effectively improve psoriasis symptoms”.
